Data on 32 molecules can be found in patent publication US20050079529A1, “Very large scale immobilized polymer synthesis” (Affymetrix, INC., priority 1989, published 2005).

Entries after “also recorded” stand apart in the source; their conditions may differ.

The subject of the first data set is anti-dynorphin B monoclonal antibody. The data set is described as follows: Dynorphin B deletion peptide array, relative binding of anti-dynorphin B monoclonal antibody by fluorescence intensity. To be noted: mean ± spread over N synthesis sites.
Method: The binding epitope on dynorphin B for the anti-dynorphin B antibody described above was determined by deleting various amino acids and combinations of amino acids from the overall sequence of dynorphin B. The peptides containing these various deletions were prepared on a substrate by the general protection-deprotection methods described above. Then the substrate was exposed to the anti-dynorphin B monoclonal antibody and a fluorescence image was produced as shown in FIG. 33.
From the intensity distribution contained in this plot, it was possible to determine the relative binding affinity to various of the peptides.
Regarding “F L R R Q F: deletion peptide from the dynorphin B sequence (FLRRQF)”, the “RELATIVE INTENSITY” value amounted to 8.5 ± 3.4.

For the molecule “F L R R Q F K V V T: deletion peptide from the dynorphin B sequence (FLRRQFKVVT)”, the “RELATIVE INTENSITY” value came to 84.2 ± 28.2.

As for “F L R R Q F K: deletion peptide from the dynorphin B sequence (FLRRQFK)”, the “RELATIVE INTENSITY” value is recorded as 10.2 ± 2.8.

For the molecule “K V V T: deletion peptide from the dynorphin B sequence, SEQ ID NO:36 (KVVT)”, the “RELATIVE INTENSITY” value turned out to be 10.7 ± 1.8.

On to “R R Q F K V V T: deletion peptide from the dynorphin B sequence (RRQFKVVT)”, for which the “RELATIVE INTENSITY” value stood at 98.8 ± 0.9.

With “F L R R Q F K V: deletion peptide from the dynorphin B sequence (FLRRQFKV)”, the “RELATIVE INTENSITY” value amounted to 13.7 ± 3.0.

As for “L R R Q F K V V T: deletion peptide from the dynorphin B sequence (LRRQFKVVT)”, the “RELATIVE INTENSITY” value is 86.9 ± 13.7.

Consider “Q F K V V T: deletion peptide from the dynorphin B sequence (QFKVVT)”, for which the “RELATIVE INTENSITY” value is on record as 36.2 ± 16.0.

For the molecule “F L R R Q F K V V: deletion peptide from the dynorphin B sequence (FLRRQFKVV)”, the “RELATIVE INTENSITY” value was 37.4 ± 14.6.

The data set is the same for the next values; noted with them: second value in parentheses.
Take “F L R R Q F K V V T: deletion peptide from the dynorphin B sequence (FLRRQFKVVT)”: the “RELATIVE INTENSITY, value in parentheses (ADJUSTED)” value was “(98.3 ± 1.2)”.

On to “F L R R Q F K V V: deletion peptide from the dynorphin B sequence (FLRRQFKVV)”, for which the “RELATIVE INTENSITY, value in parentheses (ADJUSTED)” value is recorded as “(30.5 ± 5.4)”.

A further data set concerns antibody 3E7. Kind of data set: 10-step binary synthesis array of 1,024 peptides, fluorescence scan after antibody 3E7 and fluoresceinated antibody. It is filed as binding, mouse.
Details: not given
The source says: The power of the binary masking strategy can be appreciated by the outcome of a 10-step synthesis that produced 1,024 peptides. The polynomial expression for this 10-step binary synthesis was: (f+Ø)(Y+Ø)(G+Ø)(A+Ø)(G+Ø)(T+Ø)(F+Ø)(L+Ø)(S+Ø)(F+Ø)
Each peptide occupied a 400×400 μm square. A 32×32 peptide array (1,024 peptides, including the null peptide and 10 peptides of l=1, and a limited number of duplicates) was clearly evident in a fluorescence scan following side group deprotection and treatment with the antibody 3E7 and fluoresceinated antibody. Each synthesis site was a 400×400 μm square.
(x=20, y=9). […] The median value of the array was 4,800 counts.
The identity of each peptide in the array could be determined from its x and y coordinates (each range from 0 to 31) and the map of FIG. 29. The chemical units at positions 2, 5, 6, 9, and 10 are specified by the y coordinate and those at positions 1, 3, 4, 7, 8 by the x coordinate. All but one of the peptides was shorter than 10 residues. For example, the peptide at x=12 and y=3 is YGAGF (SEQ ID NO:30; […]).
It is often desirable to deduce a binding affinity of a given peptide from the measured fluorescence intensity. Conceptually, the simplest case is one in which a single peptide binds to a univalent antibody molecule. The fluorescence scan is carried out after the slide is washed with buffer for a defined time. The order of fluorescence intensities is then a measure primarily of the relative dissociation rates of the antibody-peptide complexes. If the on-rate constants are the same (e.g., if they are diffusion-controlled), the order of fluorescence intensities will typically correspond to the order of binding affinities. However, the situation is sometimes more complex because a bivalent primary antibody and a bivalent secondary antibody are used. The density of peptides in a synthesis area corresponded to a mean separation of […], which would allow multivalent antibody-peptide interactions. […] For a more complete analysis of how the present invention can be extended to the binding affinity of an immobilized ligand to a receptor, see U.S. Ser. No. 07/796,947, filed Nov. 22, 1991, and incorporated herein by reference.
For the molecule YGAFSF: SEQ ID NO:16, the “rank of fluorescence in the 1,024 peptide array” value (“rank of fluorescence” below) is recorded as “most highly fluorescent”.

On to YGAFLF: SEQ ID NO:12, for which the “rank of fluorescence” value is “most highly fluorescent”.

YGAFF: SEQ ID NO:13: the “rank of fluorescence” value is “most highly fluorescent”.

With YGAF: SEQ ID NO:8, the “rank of fluorescence” value is reported as “most highly fluorescent”.

As to YGAFL: SEQ ID NO:6, the “rank of fluorescence” value is reported as “most highly fluorescent”.

In the case of YGAFS: SEQ ID NO:5, the “rank of fluorescence” value was “most highly fluorescent”.

In the case of YGGFLS: SEQ ID NO:7, the “rank of fluorescence” value is reported as “most highly fluorescent”.

Consider YGALS: SEQ ID NO:9, for which the “rank of fluorescence” value was “most highly fluorescent”.

Take YGGLS: SEQ ID NO:14: the “rank of fluorescence” value is listed as “most highly fluorescent”.

For YGAFLSF, the “rank of fluorescence” value is “most highly fluorescent”.

On to YGAL: SEQ ID NO:11, for which the “rank of fluorescence” value is on record as “most highly fluorescent”.

Regarding YGAFLS: SEQ ID NO:4, the “rank of fluorescence” value is listed as “brightest element of the array; also recorded: most highly fluorescent”.

YGGFS: SEQ ID NO:10: the “rank of fluorescence” value is given as “most highly fluorescent”.

The subject of another data set is Herz antibody. Kind of data set: 50 μm checkerboard of YGGFL and YPGGFL, antibody fluorescence plot.
Details: not given
Format: binding, mouse.
For the molecule YPGGFL: peptide, SEQ ID NO:3, the “recognition / binding by the antibody” value is given as “does not bind significantly”.

System in another data set: not listed separately
The data set is described as follows: Photolysis of N-protected L-phenylalanine in solution. Format: physicochemical. To be noted: 5 mM H2SO4/Dioxane; 0.10 mM protected phenylalanine. How it is done: The photoremovable protecting groups of the present invention are readily removed. For example, the photolysis of N-protected L-phenylalanine in solution having different photoremovable protecting groups was analyzed, and the results are presented in the following table: […]
Regarding `COc1cc(COC(=O)NC(Cc2ccccc2)C(=O)O)c([N+](=O)[O-])cc1OC` (stereo not shown) [NVOC, reference compound], the “t1/2 in seconds, photolysis of protected L-Phe-OH” value (from here on “t1/2 in seconds, photolysis”) came out at 1.63 min.

Regarding `O=C(NC(Cc1ccccc1)C(=O)O)OCc1ccccc1[N+](=O)[O-]` (stereo not shown) [NBOC, reference compound], the “t1/2 in seconds, photolysis” value stood at 26.25 min.

In the case of `CC(OC(=O)NC(Cc1ccccc1)C(=O)O)c1cc2c(cc1[N+](=O)[O-])OCO2` (stereo not shown) [MeNPOC], the “t1/2 in seconds, photolysis” value is 0.367 min.

Staying with this data set, now noted: Dioxane; 0.10 mM protected phenylalanine.
Turning to `COc1cc(COC(=O)NC(Cc2ccccc2)C(=O)O)c([N+](=O)[O-])cc1OC` (stereo not shown) [NVOC, reference compound], the “t1/2 in seconds, photolysis” value came to 1.83 min.

As to `O=C(NC(Cc1ccccc1)C(=O)O)OCc1ccccc1[N+](=O)[O-]` (stereo not shown) [NBOC, reference compound], the “t1/2 in seconds, photolysis” value worked out at 21.47 min.

In the case of `CC(OC(=O)NC(Cc1ccccc1)C(=O)O)c1cc2c(cc1[N+](=O)[O-])OCO2` (stereo not shown) [MeNPOC], the “t1/2 in seconds, photolysis” value is 0.317 min.

Another data set deals with antibody 3E7. Kind of data set: Fluorescence scan of 50 μm YGGFL/PGGFL checkerboard array probed with antibody 3E7 and fluoresceinated goat anti-mouse antibody. Format: binding. Conditions: 2 μg/ml 3E7; 50 μm checkerboard. The method, then: FIG. 11 is a flow chart illustrating another example of the invention. Carboxy-activated NVOC-leucine was allowed to react with an aminated substrate. The carboxy activated HOBT ester of leucine and other amino acids used in this synthesis was formed by mixing 0.25 mmol of the NVOC amino protected amino acid with 37 mg HOBT (1-hydroxybenzotriazole), 111 mg BOP (benzotriazolyl-n-oxy-tris (dimethylamino)-phosphoniumhexa-fluorophosphate) and 86 μl DIEA (diisopropylethylamine) in 2.5 ml DMF. The NVOC protecting group was removed by uniform illumination. Carboxy-activated NVOC-phenylalanine was coupled to the exposed amino groups for 2 hours at room temperature, and then washed with DMF and methylene chloride. Two unmasked cycles of photodeprotection and coupling with carboxy-activated NVOC-glycine were carried out. The surface was then illuminated through a chrome on glass 50 μm checkerboard pattern mask. Carboxy-activated Na-tBOC-O-tButyl-L-tyrosine was then added. […]
The array of pentapeptides was probed with a mouse monoclonal antibody directed against β-endorphin. […] The surface was scanned with an epi-fluorescence microscope. […] The height of each spike in this display is linearly proportional to the integrated fluorescence intensity in a 2.5 μm pixel. […] There is little variation in the fluorescence intensity of different YGGFL squares. […]
Consider Pro-Gly-Gly-Phe-Leu (PGGFL), for which the “binding of antibody 3E7 to surface peptide” value is recorded as “does not bind”.

A further data set concerns antibody 3E7.
Assay: not given
Conditions: known from Meo et al., Proc. Natl. Acad. Sci. USA (1983) 80:4084; cited from earlier work.
Take “YGGFM: SEQ ID NO:21, the immunogen used to obtain antibody 3E7”: the “affinity of binding by antibody 3E7” value was “nanomolar affinity”.

The subject of a further data set is antibody 3E7. Kind of data set: 10-step binary synthesis array of 1,024 peptides, fluorescence scan after antibody 3E7 and fluoresceinated antibody. It is filed as binding, mouse. Conditions: additional binary syntheses based on peptides on phage leads.
Consider YGAFMQ: SEQ ID NO:18, for which the “fluorescence signal relative to YGGFM” value is “stronger fluorescence signals than does YGGFM”.

Turning to YGAFQ: SEQ ID NO:20, the “fluorescence signal relative to YGGFM” value is given as “stronger fluorescence signals than does YGGFM”.

In the case of YGAFM: SEQ ID NO:19, the “fluorescence signal relative to YGGFM” value was “stronger fluorescence signals than does YGGFM”.

A further data set relates to Herz antibody. The data set is described as follows: YGGFL/GGFL checkerboard slide exposed to Herz antibody and goat anti-mouse fluorescein conjugate. Format: binding. Conditions: 500×500 μm mask. The method, then:
A first antibody, known as the Herz antibody, was applied to the surface of the slide for 45 minutes at 2 μg/ml in a supercocktail (containing 1% BSA and 1% ovalbumin also in this case). A second antibody, goat anti-mouse fluorescein conjugate, was then added at 2 μg/ml in the supercocktail buffer, and allowed to incubate for 2 hours.
Monomer-by-monomer synthesis of YGGFL and GGFL in alternate squares was performed on a slide in a checkerboard pattern and the resulting slide was exposed to the Herz antibody. This experiment and the results thereof are illustrated in FIGS. 13A, 13B, 13C, and 13D.
In FIG. 13A, a slide is shown which is derivatized with t-BOC-aminopropyl-triethoxysilane. The slide was treated with TFA to remove the t-BOC protecting group. t-BOC-6-aminocaproic acid was then coupled onto the aminopropyl groups. The aminocaproic acid serves as a spacer between the aminopropyl group and the peptide to be synthesized. The amino end of the spacer was deprotected and coupled to NVOC-Leucine. The entire slide was then illuminated with 12 mW of 325 nm broadband illumination. The slide was then coupled with NVOC-Phenylalanine and washed. The entire slide was again illuminated, then coupled to NVOC-Glycine and washed. […]
The resulting fluorescence scan is shown in FIG. 13C, and the scale for the fluorescence intensity is again given on the right. […]
For GGFL: tetrapeptide, SEQ ID NO:15, the “recognition by Herz antibody” value is on record as “not recognized”.
